According to paper PMC11942486, “The Impact of a Quinone Scaffold on Thermo-TRPs Modulation by Dimethylheptyl Phytocannabinoids” (International Journal of Molecular Sciences, 2025):
Read-outs that look alike come from different tables or passages of the source.

How the values were obtained:
rat TRPV2 = target: T1, rat TRPV2 (Rattus norvegicus, UniProt Q9WUD2); experiment: Thermo-TRP assay: [Ca2+]i elevation (Fluo-4) in HEK-293 cells transfected with TRPV2; type: cell-based; conditions: for TRPV2 Efficacy (% Ionomycin 4 μM): agonist effect as % of ionomycin 4 μM; for EC50: half-maximal increase in [Ca2+]i, read-out: TRPV2 Potency EC50; for IC50: vs CBD 2 μM
T1 construct: expressed in transfected cells
T1 sequence (Q9WUD2 1-761): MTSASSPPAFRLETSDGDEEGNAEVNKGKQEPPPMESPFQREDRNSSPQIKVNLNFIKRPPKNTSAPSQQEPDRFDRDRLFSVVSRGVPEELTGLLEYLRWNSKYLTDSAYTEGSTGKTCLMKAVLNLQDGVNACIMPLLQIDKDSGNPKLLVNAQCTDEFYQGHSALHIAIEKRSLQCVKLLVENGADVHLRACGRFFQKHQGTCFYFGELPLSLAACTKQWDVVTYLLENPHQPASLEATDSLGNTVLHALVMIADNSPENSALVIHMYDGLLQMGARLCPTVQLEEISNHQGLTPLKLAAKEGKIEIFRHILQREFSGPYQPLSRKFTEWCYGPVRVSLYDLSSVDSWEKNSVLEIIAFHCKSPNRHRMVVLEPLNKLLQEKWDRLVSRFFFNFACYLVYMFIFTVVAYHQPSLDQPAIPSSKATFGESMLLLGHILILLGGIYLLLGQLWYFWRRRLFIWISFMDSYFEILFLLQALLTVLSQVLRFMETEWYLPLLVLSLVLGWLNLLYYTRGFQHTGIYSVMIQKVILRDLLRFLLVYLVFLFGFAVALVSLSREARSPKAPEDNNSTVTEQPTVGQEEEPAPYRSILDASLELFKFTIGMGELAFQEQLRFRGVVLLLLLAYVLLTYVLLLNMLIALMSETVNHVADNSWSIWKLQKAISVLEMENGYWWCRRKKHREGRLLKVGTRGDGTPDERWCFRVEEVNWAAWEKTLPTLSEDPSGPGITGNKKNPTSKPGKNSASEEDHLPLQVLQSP
Experimental: The compounds were tested on HEK-293 cells either stably transfected with rat TRPA1, TRPV2, TRPV3, TRPV4, TRPM8 or human TRPV1 or not-transfected, by performing a continuous monitoring of the intracellular calcium ([Ca^2+]i) elevation during the experiments, following the protocol already described. On the day of the experiment, the cells were loaded for 1 h in the dark at room temperature with the fluorescent probe Fluo-4 AM (4 μM in DMSO containing 0.02% Pluronic F-127). The cells were rinsed, resuspended in Tyrode’s solution (145 mM NaCl, 2.5 mM KCl, 1.5 mM CaCl2, 1.2 mM MgCl2, 10 mM D-glucose, and 10 mM HEPES, pH 7.4), and transferred to a quartz cuvette of a spectrofluorimeter (PerkinElmer LS50B; λEX = 488 nm, λEM = 516 nm) equipped with a PTP-1 fluorescence Peltier system (PerkinElmer Life and Analytical Sciences, Waltham, MA, USA) under continuous stirring. Cell fluorescence before and after the addition of various concentrations of tested compounds was measured, normalizing the effects against the response to ionomycin (IM, 4 μM). The effect on [Ca^2+]i in non-transfected HEK-293 cells were used as the baseline and subtracted from the values obtained from the transfected ones. The efficacy of the agonists was determined by normalizing their effect to the maximum Ca^2+ influx effect on [Ca^2+]i observed with application of 4μM ionomycin. The effects of TRPA1 agonists are expressed as a percentage of the effect obtained with 100 μM allyl isothiocyanate (AITC). In the TRPV3 assay, rat TRPV3-expressing HEK-293 cells were first sensitized with the structurally unrelated agonist 2-aminoethoxydiphenyl borate (100 μM). For the TRPM8, the experiments were carried out at 22 °C. The potency (EC50 values) is determined as the concentration required to produce half-maximal increases in [Ca^2+]i. Antagonist/desensitizing behavior is evaluated against the agonist of the TRP analyzed by adding the compounds directly in the quartz cuvette 5 min before stimulation of cells with the agonist (allylisothiocyanate (100 μM) for TRPA1, capsaicin (0.1 μM) for TRPV1, cannabidiol (2 μM) for TRPV2, thymol (100 μM) for TRPV3, GSK1016790A (10 nM) for TRPV4, and icilin (0.25 μM) for TRPM8). The IC50 value is expressed as the concentration exerting a half-maximal inhibition of the agonist effect, taking as 100% the effect on [Ca^2+]i exerted by the agonist alone. A dose-response curve fitting (sigmoidal dose-response variable slope) and parameter estimation were performed with Graph-Pad Prism 8 (GraphPad Software Inc., San Diego, CA, USA). All determinations were performed at least in triplicate.

rat TRPV4 = target: T2, rat TRPV4 (Rattus norvegicus, UniProt Q9ERZ8); experiment: Thermo-TRP assay: [Ca2+]i elevation (Fluo-4) in HEK-293 cells transfected with TRPV4; type: cell-based
T2 construct: expressed in transfected cells
Experimental: The compounds were tested on HEK-293 cells either stably transfected with rat TRPA1, TRPV2, TRPV3, TRPV4, TRPM8 or human TRPV1 or not-transfected, by performing a continuous monitoring of the intracellular calcium ([Ca^2+]i) elevation during the experiments, following the protocol already described. […] Cell fluorescence before and after the addition of various concentrations of tested compounds was measured, normalizing the effects against the response to ionomycin (IM, 4 μM). The effect on [Ca^2+]i in non-transfected HEK-293 cells were used as the baseline and subtracted from the values obtained from the transfected ones. The efficacy of the agonists was determined by normalizing their effect to the maximum Ca^2+ influx effect on [Ca^2+]i observed with application of 4μM ionomycin. The effects of TRPA1 agonists are expressed as a percentage of the effect obtained with 100 μM allyl isothiocyanate (AITC). In the TRPV3 assay, rat TRPV3-expressing HEK-293 cells were first sensitized with the structurally unrelated agonist 2-aminoethoxydiphenyl borate (100 μM). For the TRPM8, the experiments were carried out at 22 °C. The potency (EC50 values) is determined as the concentration required to produce half-maximal increases in [Ca^2+]i. […] A dose-response curve fitting (sigmoidal dose-response variable slope) and parameter estimation were performed with Graph-Pad Prism 8 (GraphPad Software Inc., San Diego, CA, USA). All determinations were performed at least in triplicate.

[1] = vs GSK1016790A 10 nM, read-out: IC50 TRPV4

T2 sequence (Q9ERZ8 whole entry): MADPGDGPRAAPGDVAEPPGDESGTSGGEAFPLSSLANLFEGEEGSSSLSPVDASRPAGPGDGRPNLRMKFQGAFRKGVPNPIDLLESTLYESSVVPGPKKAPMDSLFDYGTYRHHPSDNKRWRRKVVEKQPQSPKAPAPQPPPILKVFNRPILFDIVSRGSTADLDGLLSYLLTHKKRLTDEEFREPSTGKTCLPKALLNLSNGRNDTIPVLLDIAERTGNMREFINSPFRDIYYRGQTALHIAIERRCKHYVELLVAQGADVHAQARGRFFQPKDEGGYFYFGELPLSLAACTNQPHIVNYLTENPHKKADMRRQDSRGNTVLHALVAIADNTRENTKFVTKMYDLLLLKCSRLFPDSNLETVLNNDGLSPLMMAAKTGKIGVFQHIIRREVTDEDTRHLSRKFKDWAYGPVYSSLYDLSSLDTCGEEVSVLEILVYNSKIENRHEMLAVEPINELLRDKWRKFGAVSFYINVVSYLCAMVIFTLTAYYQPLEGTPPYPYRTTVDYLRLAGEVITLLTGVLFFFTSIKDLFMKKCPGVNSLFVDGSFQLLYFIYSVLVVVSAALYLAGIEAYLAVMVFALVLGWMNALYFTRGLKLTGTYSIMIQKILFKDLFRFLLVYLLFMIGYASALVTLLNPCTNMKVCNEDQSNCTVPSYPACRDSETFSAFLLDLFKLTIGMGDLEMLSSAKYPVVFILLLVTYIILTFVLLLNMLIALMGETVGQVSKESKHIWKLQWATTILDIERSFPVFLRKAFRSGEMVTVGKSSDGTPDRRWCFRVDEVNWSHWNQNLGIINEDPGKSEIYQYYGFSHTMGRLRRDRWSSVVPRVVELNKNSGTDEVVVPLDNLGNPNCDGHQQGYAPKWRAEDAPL

## C=C(C)[C@@H]1CCC(C)=C[C@H]1C1=C(O)C(=O)C(C(C)(C)CCCCCC)=CC1=O [5b]
Rat TRPV2
  TRPV2 Efficacy (% Ionomycin 4 μM): 30.6 ± 6.5%
  EC50: 12.2 ± 9.7 µM
  IC50: 5.45 ± 0.5 µM
Rat TRPV4; [1]
  IC50: > 100 µM

## CCCCCCC(C)(C)C1=CC2=C(C(=O)C1=O)[C@@H]1CC(C)=CC[C@H]1C(C)(C)O2 [6b]
Rat TRPV2
  TRPV2 Efficacy (% Ionomycin 4 μM): 78.1 ± 4.0%
  EC50: > 50 µM
  IC50: 8.5 ± 0.5 µM
Rat TRPV4
  IC50: > 100 µM

## CCCCCCC(C)(C)C1=CC(=O)C(C/C=C(\C)CCC=C(C)C)=C(O)C1=O [7b, p-DMHCBGQ]
Rat TRPV2
  TRPV2 Efficacy (% Ionomycin 4 μM): 47.8 ± 1.4%
  EC50: 30.5 ± 3.9 µM
  IC50: 23.7 ± 2.9 µM
Rat TRPV4; [1]
  IC50: > 50 µM

## CCCCCCC(C)(C)C1=CC(=O)C2=C(OC(C)(CCC=C(C)C)C=C2)C1=O (stereo not shown) [8b]
Rat TRPV2
  TRPV2 Efficacy (% Ionomycin 4 μM): 31.5 ± 2.9%
  EC50: > 50 µM
  IC50: 6.9 ± 0.1 µM
Rat TRPV4; [1]
  IC50: > 100 µM
